In series [1] the test system is CRBN−/− MOLM-13 cells. The experiment in a line: Wild type versus CRBN−/− MOLM-13 cells (viability, CRBN dependence). The class given is cell-based, human. Also noted: key to cell viability, dose-response replicate values: % viability = 100 − % activity (RLU normalized to negative control). The following applies: for cell viability, dose-response replicate values: MOLM-13 CRBN KO. The source says:
Having identified SJ7095 as a compound with a potent antiproliferative effect in MOLM-13 cells, we next examined whether the observed effect was CRBN-dependent. […] In an orthogonal approach, we tested SJ7095 in wild-type and CRBN-knockout MOLM-13 cells in a cell viability assay (Supplementary Fig. 1b).
CRBN^−/− MOLM-13 cells were created using CRISPR-Cas9 technology. Briefly, 1 million MOLM-13 cells were transiently transfected with precomplexed ribonuclear proteins (RNPs) consisting of 400 pmol of chemically modified sgRNA (Synthego), 135pmol of SpCas9 protein (St. Jude Protein Production Core), and 500 ng of pMaxGFP (Lonza) via nucleofection (Lonza, 4D-Nucleofector™ X-unit) using solution SF and program EO100 in a 100 µl cuvette according to the manufacturer’s recommended protocol. Transfected cells (GFP+) were single-cell sorted by flow cytometry (St. Jude Flow Cytometry and Cell Sorting Shared Resource) into 96-well tissue culture-treated plates 5 days post nucleofection. Cells were clonally expanded and screened for the desired targeted modification (out-of-frame indels) via targeted deep sequencing using gene-specific primers with partial Illumina adapter overhangs as previously described. Genotyping of clones was performed using CRIS.py[59]. Knockout clones were identified as clones containing only out-of-frame indels. PowerPlex® Fusion System (Promega) was used to confirm final clone identification (Hartwell Center for Biotechnology at St. Jude). All clones tested negative for mycoplasma by the MycoAlert^TMPlus Mycoplasma Detection Kit (Lonza). CRBN knockout confirmed by immunoblot (Supplementary Material).
MOLM-13 cells were plated in Corning 8804BC white 384-well assay plates at the appropriate cell number per well and incubated overnight at 37 °C in a humidified 5 % CO2 incubator. Compounds were transferred to the assay plate from a dose-response plate using a Labcyte Echo 650 Acoustic Liquid Handler (Beckman Coulter , USA). Cytotoxicity was determined following 72 h of incubation using Promega’s CellTiter-Glo reagent according to the manufacturer’s recommendation.
Luminescence was measured on the Envision plate reader (PerkinElmer, USA). Raw luminescence relative light unit (RLU) values for each compound at each concentration were normalized to obtain % activity using the following equation (1): 100 × [(mean(negctrl) – compound)/(mean (negctrl) – mean (posctrl))]. The % activity was converted to % viability using the following equation (2):
(100 – % activity), and then pooled from replicate experiments prior to fitting. Here, negctrl and posctrl refer to the negative (DMSO) and positive controls (staurosporine) on each plate. Dose-response curves were fit to the Hill equation using the GraphPad Prism (version 10). […]

The subject of series [2] is MOLM-13 cells. The experiment in a line: TMT quantitative proteomics in MOLM-13. Type of series: cell-based, human. The following applies: for Proteins with significantly reduced abundance (TMT proteomics): 1 μM, 4 h. The procedure:
We next carried out a tandem mass tag (TMT) quantitative proteomics experiment[30] to identify the neosubstrates whose degradation is induced by SJ7095. […] We confirmed the proteomics results by immunoblot analysis of CK1α in MOLM-13 cells following treatment with increasing concentrations of SJ7095 over 4 h (Fig. 2b). Under these conditions compound SJ7095 induced dose-dependent reduction of CK1α protein levels with DC50 value of 15 nM.
Each compound was tested in three wells of 2 million MOLM-13 cells each. […] Cells were then collected and washed with DPBS. Washed cells were centrifuged at 400×g for 5 min at 4 °C, the supernatant was removed, and pellets were snap frozen in liquid nitrogen and stored at −80 °C until sample submission.
The experiment was performed with a previously optimized protocol[30] with slight modification. Cell pellets were lysed in lysis buffer (50 mM HEPES, pH 8.5, 8 M urea, and 0.5% sodium deoxycholate). To profile the whole proteome, the protein lysates (approximately 100 µg of protein per sample) were proteolyzed with LysC (Wako) at an enzyme-to-substrate ratio of 1:100 (w/w) for 2 h at 21 °C. Following this the samples were diluted to a final 2 M Urea concentration, and further digested with trypsin (Promega) at an enzyme-to-substrate ratio of 1:50 (w/w) for at least 3 h. The peptides were reduced by adding 1 mM DTT for 30 min at 21 °C followed by alkylation with 10 mM iodoacetamide (IAA) for 30 min in the dark. The unreacted IAA was quenched with 30 mM DTT for 30 min. Finally, the digestion was stopped by adding trifluoroacetic acid (TFA) to 1%, desalted using C18 cartridges (Harvard Apparatus), and dried by speedvac. The purified peptides were resuspended in 50 mM HEPES (pH 8.5), and labeled with TMT reagents (Thermo Scientific). The differentially labeled samples were pooled equally, desalted, and dried for the subsequent peptide fractionation. Peptide analysis by two-dimensional liquid chromatography–tandem mass spectrometry (LC/LC–MS/MS) and MS data analysis are described in Supplementary Material. […]
Identification/quantification of proteins
The MS/MS raw data were processed by a tag-based hybrid search engine, JUMP7. The data was […]
concatenated with a reversed decoy database for evaluating False Discovery Rate (FDR). Searches were performed using a 15 ppm mass tolerance for precursor ions, fully tryptic restriction with two maximal missed cleavages, three maximal modification sites, and the assignment of b, and y ions.
TMT tags on lysine residues and N-termini (+304.2071453 Da for TMT16 and TMT18) were used for static modifications. In addition, oxidation of Methionine (Met) was considered as a dynamic modification (+15.99492 Da). Putative peptide spectral matches (PSMs) were filtered by mass accuracy and then grouped by precursor ion charge state and further filtered by JUMP-based matching scores, Jscore and ΔJn, to achieve the protein FDR below 1%. For quantification, TMT intensities of reporter ions were extracted, filtered, normalized, and summarized into peptide and […]
Differential expression analysis of proteins
Identification of differentially expressed proteins were conducted by the limma R package8. To control multiple testing, the Benjamini-Hochberg method was employed. Proteins with an adjusted […]
p value of < 0.05 and log2 fold change of > 2-fold of standard deviation (SD) were defined as differentially expressed. […]

This note sets out measurements from paper PMC10791743, “Selective CK1α degraders exert antiproliferative activity against a broad range of human cancer cell lines” (Nature Communications, 2024).

Where “and” joins values, the source holds several entries; their conditions need not be identical. Identical values can stand only once.

What is called viability is a read-out of living cells in per cent, often relative to untreated cells.

For the compound `Cc1cccc(C(=O)Nc2ccc3c(c2)CN(C2CCC(=O)NC2=O)C3=O)c1` (centres unmarked) [SJ0040], the viability at 0.00126002 µM in series [1] (Homo sapiens, MOLM-13, MOLM-13 CRBN KO, Conc 0.00126002 uM, read-out: cell viability, dose-response replicate values) worked out at 97.2%. The viability at 0.0113402 µM in series [1] (Homo sapiens, MOLM-13, MOLM-13 CRBN KO, Conc 0.0113402 uM, read-out: cell viability, dose-response replicate values) came to 96.7%. Further, in series [1] (Homo sapiens, MOLM-13, MOLM-13 CRBN KO, Conc 0.0340206 uM, read-out: cell viability, dose-response replicate values), the viability at 0.0340206 µM came to 93.1%. Moreover, in series [1] (Homo sapiens, MOLM-13, MOLM-13 CRBN KO, Conc 0.102062 uM, read-out: cell viability, dose-response replicate values), the viability at 0.102062 µM stood at 89.2%. Further, the viability at 0.306185 µM in series [1] (Homo sapiens, MOLM-13, MOLM-13 CRBN KO, Conc 0.306185 uM, read-out: cell viability, dose-response replicate values) is 88.4%. The viability at 0.918556 µM in series [1] (Homo sapiens, MOLM-13, MOLM-13 CRBN KO, Conc 0.918556 uM, read-out: cell viability, dose-response replicate values) was 97.5%. The viability at 2.75567 µM in series [1] (Homo sapiens, MOLM-13, MOLM-13 CRBN KO, Conc 2.75567 uM, read-out: cell viability, dose-response replicate values) came out at 84.5%. Further, the viability at 8.267 µM in series [1] (Homo sapiens, MOLM-13, MOLM-13 CRBN KO, Conc 8.267 uM, read-out: cell viability, dose-response replicate values) worked out at 48.7%. The “cell viability, dose-response replicate values” (shortened to “cell viability”) in series [1] (Conc 0.00126002 uM) is 101.892 and 99.1853; in series [1] (Conc 0.00378006 uM), 77.9399 and 92.8153 and 102.961; in series [1] (Conc 0.0113402 uM) it was 90.8518 and 98.3247; in series [1] (Conc 0.0340206 uM) it was 99.2582 and 100.85; in series [1] (Conc 0.102062 uM) it was 95.1601 and 101.209; in series [1] (Conc 0.306185 uM) it was 92.1664 and 101.967. Also, the “cell viability” value in series [1] (Conc 0.918556 uM) was 93.1747 and 96.6395; in series [1] (Conc 2.75567 uM) it was 84.7802 and 96.7661; in series [1] (Conc 8.267 uM) it was 53.0309 and 66.5957. Further, the “Proteins with significantly reduced abundance (TMT proteomics)” value in series [2] is “significantly reduced the abundance of only CK1α out of >9000 proteins”. For the same compound, the “Log2FC vs. DMSO, BHLHE40” value in series [2] (1uM, 4h) turned out to be 0.522. Besides, the “Log2FC vs. DMSO, CSNK1A1” value in series [2] (1uM, 4h) was -1.896.

For the compound `O=C1CCC(N2Cc3cc(Nc4noc5ccccc45)ccc3C2=O)C(=O)N1` (centres unmarked) [SJ3149], the viability at 0.000508 µM in series [1] (Homo sapiens, MOLM-13, MOLM-13 CRBN KO, Conc 0.000508 uM, read-out: cell viability, dose-response replicate values) came to 113%. Besides, the viability at 0.00152416 µM in series [1] (Homo sapiens, MOLM-13, MOLM-13 CRBN KO, Conc 0.00152416 uM, read-out: cell viability, dose-response replicate values) came out at 116%. The viability at 0.00457247 µM in series [1] (Homo sapiens, MOLM-13, MOLM-13 CRBN KO, Conc 0.00457247 uM, read-out: cell viability, dose-response replicate values) is 120%. The viability at 0.0137174 µM in series [1] (Homo sapiens, MOLM-13, MOLM-13 CRBN KO, Conc 0.0137174 uM, read-out: cell viability, dose-response replicate values) amounted to 115%. For the same compound, the viability at 0.0411523 µM in series [1] (Homo sapiens, MOLM-13, MOLM-13 CRBN KO, Conc 0.0411523 uM, read-out: cell viability, dose-response replicate values) was 116%. The viability at 0.123457 µM in series [1] (Homo sapiens, MOLM-13, MOLM-13 CRBN KO, Conc 0.123457 uM, read-out: cell viability, dose-response replicate values) worked out at 113%. The viability at 0.37037 µM in series [1] (Homo sapiens, MOLM-13, MOLM-13 CRBN KO, Conc 0.37037 uM, read-out: cell viability, dose-response replicate values) came out at 118%. In series [1] (Homo sapiens, MOLM-13, MOLM-13 CRBN KO, Conc 10 uM, read-out: cell viability, dose-response replicate values), the viability at 10 µM came to 80.2%. The “cell viability” value in series [1] (Conc 0.000508 uM) is 112.4 and 118.871; in series [1] (Conc 0.00152416 uM) it was 110.951 and 120.77; in series [1] (Conc 0.00457247 uM) it was 113.675 and 126.396; in series [1] (Conc 0.0137174 uM) it was 112.684 and 118.779; in series [1] (Conc 0.0411523 uM), 113.146 and 122.731; in series [1] (Conc 0.123457 uM), 114.423 and 122.764. For the same compound, the “cell viability” value in series [1] (Conc 0.37037 uM) is 115.466 and 130.548; in series [1] (Conc 1.11111 uM) it was 110.229 and 104.531 and 126.2; in series [1] (Conc 3.33333 uM) it was 104.594 and 98.0101 and 119.909; in series [1] (Conc 10 uM), 76.5849 and 88.9707. Further, in series [2], the “Proteins with significantly reduced abundance (TMT proteomics)” value was “significantly reduced the abundance of only CK1α out of >9000 proteins”. Also, the “Log2FC vs. DMSO, CSNK1A1” value in series [2] (1uM, 4h) is reported as -0.851. Besides, in series [2] (1uM, 4h), the “Log2FC vs. DMSO, CTNNB1” value amounted to 1.473.
